According to ChEMBL document CHEMBL1201862, “PubChem BioAssay data set” (2004):
Active and inactive are the calls of the source.

Tests used:
[1] = biological target: Protein disulfide-isomerase (Homo sapiens, UniProt P07237); assay: inhibition of PDI-driven insulin aggregation – biochemical, turbidity, absorbance, cherry-picked samples, dose response (AID 602350); format: functional
[2] = biological target: ADP-ribosylation factor GTPase-activating protein 1 (Rattus norvegicus, UniProt Q62848); assay: Fluorescence polarization-based biochemical high throughput dose response screening assay to identify inhibitors of ADP-ribosylation factor GTPase activating protein 1 (ARFGAP1).; format: functional
[3] = blockers of CAL PDZ–TMR peptide complex – biochemical, fluorescence polarization, untagged CAL PDZ, cherry-pick, set 2, dose response (AID 602254); format: functional
[4] = microbe, parasite or virus in culture; format: functional; details: Mycobacterium tuberculosis
[5] = THP-1 cell cytotoxicity, dose response, cytotoxicity control for non-replicating M. tuberculosis project (AID 489025); format: functional
cells = format: functional
Estrogen receptor = biological target: T1, Estrogen receptor (Homo sapiens, UniProt P03372);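 also: potency for inhibiting coactivator peptide recruitment to the receptor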
T1 sequence (P03372 whole entry): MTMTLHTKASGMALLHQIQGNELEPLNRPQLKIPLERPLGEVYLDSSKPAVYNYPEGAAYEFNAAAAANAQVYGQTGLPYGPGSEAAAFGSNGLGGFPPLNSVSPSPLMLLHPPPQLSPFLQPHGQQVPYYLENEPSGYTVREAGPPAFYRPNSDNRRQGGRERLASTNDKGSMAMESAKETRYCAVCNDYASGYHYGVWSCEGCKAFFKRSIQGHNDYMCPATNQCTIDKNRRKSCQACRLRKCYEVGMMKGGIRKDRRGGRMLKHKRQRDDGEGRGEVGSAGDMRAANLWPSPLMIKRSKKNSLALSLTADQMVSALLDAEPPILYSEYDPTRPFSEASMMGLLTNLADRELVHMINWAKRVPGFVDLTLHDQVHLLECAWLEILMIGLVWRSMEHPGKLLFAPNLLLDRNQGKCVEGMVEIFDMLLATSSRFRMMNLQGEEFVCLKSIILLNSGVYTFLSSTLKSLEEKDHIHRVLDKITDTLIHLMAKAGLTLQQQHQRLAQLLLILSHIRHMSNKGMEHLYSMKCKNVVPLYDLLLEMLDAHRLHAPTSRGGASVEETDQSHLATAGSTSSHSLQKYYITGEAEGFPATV

Estrogen receptor beta [6] = biological target: T2, Estrogen receptor beta (Homo sapiens, UniProt Q92731);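 also: recombinant ER-beta bound to coactivator SRC1 peptide in presence of estradiol agonist; inhibitors block coactivator peptide binding and lower the FRET signal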
Estrogen receptor beta [7] = biological target: T2, Estrogen receptor beta; assay: blockers of SRC-3 recruitment to ERβ – biochemical, ELISA, streptavidin-HRP readout, orthogonal assay, confirmation (AID 1060)
[8] = biological target: T3, Carboxy-terminal domain RNA polymerase II polypeptide A small phosphatase 1 (Homo sapiens, UniProt Q9GZU7); assay: CTDSP1 inhibitors, concentration-response, biochemical, absorbance readout, ultra-high-throughput screen actives (AID 540297); format: functional
T3 sequence (Q9GZU7 whole entry): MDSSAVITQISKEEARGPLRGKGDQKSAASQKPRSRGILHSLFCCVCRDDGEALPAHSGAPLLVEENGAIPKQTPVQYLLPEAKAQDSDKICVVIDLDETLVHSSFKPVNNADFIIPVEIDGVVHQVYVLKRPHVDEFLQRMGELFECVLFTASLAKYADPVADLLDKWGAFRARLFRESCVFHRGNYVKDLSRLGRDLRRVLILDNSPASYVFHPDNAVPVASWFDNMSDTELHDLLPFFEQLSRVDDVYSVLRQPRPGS

[9] = biological target: DNA (cytosine-5)-methyltransferase 1 (Homo sapiens, UniProt P26358); assay: inhibition of DNA methylation by DNMT1 – biochemical, fluorescent molecular beacon, confirmation (AID 602386); format: functional
[10] = biological target: T4, Sentrin-specific protease 1 (Homo sapiens, UniProt Q9P0U3); assay: SENP1 catalytic domain blockers, concentration series – biochemical, kinetic FRET, dose response (AID 651697); format: functional; details: read-out: IC50_Mean
[11] = biological target: T4, Sentrin-specific protease 1; assay: Dose response confirmation of small molecule inhibitors of the catalytic domain of the SUMO protease, SENP1 in a FRET assay.; format: functional; details: read-out: IC50_Mean
Melanocortin receptor 4 = Melanocortin receptor 4 (Homo sapiens, UniProt P32245); assay: inhibitors of MC4R cAMP signaling – cell-based, TR-FRET, biased antagonists, dose response (AID 602298); format: functional;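 also: antagonist potency against agonist-stimulated cAMP production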
[12] = cAMP pathway inhibition in counterscreen cell line – TR-FRET cAMP detection, counter-screen for MC4R biased antagonist project, dose response (AID 602305); format: functional, cell-based;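 also: U2OS cells stimulated with forskolin near its EC80 as the cAMP inducer; potency is for inhibition of forskolin-stimulated cAMP signaling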
[13] = blockers of bursicon-stimulated LGR2 cAMP reporter – cell-based, HEK293, CRE-luciferase reporter, cherry pick, set 2, dose response (AID 743343); format: functional;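 also: transfected cells were stimulated with diluted bursicon conditioned medium after compound addition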
[14] = blockade of melanocortin 4 receptor signaling – cell-based, plate reader, cherry pick, counter-screen for LGR2 antagonist project, dose response (AID 743444); format: functional;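 also: transfected HEK 293 cells stimulated with alpha-MSH peptide; potency of inhibitors of the alpha-MSH evoked signal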
[15] = viability loss in HEK293 cells – cell-based, plate reader, cherry-picked samples, cytotoxicity control, dose response (AID 743446); format: functional
[16] = biological target: T5, Apoptotic protease-activating factor 1 (Homo sapiens, UniProt O14727); assay: SAR analysis of small molecule Activators of Apaf-1 in a Fluorescent assay.; format: functional; details: read-out: EC50_Mean;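 also: caspase-3 cleavage of fluorogenic Rh110 DEVD substrate downstream of apoptosome activation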
T5 sequence (O14727 whole entry): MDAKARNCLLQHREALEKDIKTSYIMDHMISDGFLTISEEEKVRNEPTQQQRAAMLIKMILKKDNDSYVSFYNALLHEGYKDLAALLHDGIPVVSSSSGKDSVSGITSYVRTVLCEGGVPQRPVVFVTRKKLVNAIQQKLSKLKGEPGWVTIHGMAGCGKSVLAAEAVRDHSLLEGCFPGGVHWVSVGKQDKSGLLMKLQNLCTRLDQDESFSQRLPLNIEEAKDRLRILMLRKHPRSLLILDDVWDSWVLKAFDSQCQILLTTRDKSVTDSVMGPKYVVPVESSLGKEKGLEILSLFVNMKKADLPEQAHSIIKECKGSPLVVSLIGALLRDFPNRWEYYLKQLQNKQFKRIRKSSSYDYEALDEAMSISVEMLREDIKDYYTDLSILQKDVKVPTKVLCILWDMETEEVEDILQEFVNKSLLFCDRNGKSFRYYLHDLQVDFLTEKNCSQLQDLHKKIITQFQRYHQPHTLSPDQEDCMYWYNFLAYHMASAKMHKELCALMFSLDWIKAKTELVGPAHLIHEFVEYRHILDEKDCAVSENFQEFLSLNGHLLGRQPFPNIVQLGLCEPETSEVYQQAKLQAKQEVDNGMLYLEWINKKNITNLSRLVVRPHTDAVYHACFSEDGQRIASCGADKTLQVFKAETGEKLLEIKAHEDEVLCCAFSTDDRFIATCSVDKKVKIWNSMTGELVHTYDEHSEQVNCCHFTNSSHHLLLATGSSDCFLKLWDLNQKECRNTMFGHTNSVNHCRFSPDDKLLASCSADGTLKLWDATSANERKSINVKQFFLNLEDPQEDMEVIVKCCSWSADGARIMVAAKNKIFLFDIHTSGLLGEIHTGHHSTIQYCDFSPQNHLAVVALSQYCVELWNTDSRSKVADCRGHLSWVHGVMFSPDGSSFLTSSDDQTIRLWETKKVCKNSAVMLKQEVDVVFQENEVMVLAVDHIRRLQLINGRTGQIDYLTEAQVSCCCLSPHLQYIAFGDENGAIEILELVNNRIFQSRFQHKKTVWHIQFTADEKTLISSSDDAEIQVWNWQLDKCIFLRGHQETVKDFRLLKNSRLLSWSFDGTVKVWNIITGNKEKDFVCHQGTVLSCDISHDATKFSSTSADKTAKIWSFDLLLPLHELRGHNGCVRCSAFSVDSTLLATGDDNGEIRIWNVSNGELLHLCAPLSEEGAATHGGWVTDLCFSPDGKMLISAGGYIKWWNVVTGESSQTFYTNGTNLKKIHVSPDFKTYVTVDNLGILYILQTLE

[17] = biological target: T6, Neuropeptides B/W receptor type 1 (Homo sapiens, UniProt P48145); assay: human NPBW1 receptor blockade, IC50 – cell-based, fluorescence, dose response, set 5, late-stage follow-up (AID 588566); format: functional
T6 sequence (P48145 whole entry): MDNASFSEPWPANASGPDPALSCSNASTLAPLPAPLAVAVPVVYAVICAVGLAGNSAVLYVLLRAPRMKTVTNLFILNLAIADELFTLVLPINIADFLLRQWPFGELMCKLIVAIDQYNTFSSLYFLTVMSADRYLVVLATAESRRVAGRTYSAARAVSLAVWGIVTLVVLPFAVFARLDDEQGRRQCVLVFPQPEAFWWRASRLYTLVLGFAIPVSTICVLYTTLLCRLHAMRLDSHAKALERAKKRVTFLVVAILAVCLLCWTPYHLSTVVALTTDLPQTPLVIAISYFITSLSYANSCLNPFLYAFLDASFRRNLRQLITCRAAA

[18] = biological target: Melanin-concentrating hormone receptor 1 (Homo sapiens, UniProt Q99705); assay: Late-stage fluorescence-based counterscreen for antagonists of the G-protein coupled receptor 7 (GPR7): cell-based dose response assay to identify antagonists of the melanin-concentrating hormone receptor 1 (MCHR1) Set 5.; format: functional
[19] = biological target: T7, Low molecular weight phosphotyrosine protein phosphatase (Homo sapiens, UniProt P24666); format: functional; details: read-out: IC50_Mean
T7 sequence (P24666 whole entry): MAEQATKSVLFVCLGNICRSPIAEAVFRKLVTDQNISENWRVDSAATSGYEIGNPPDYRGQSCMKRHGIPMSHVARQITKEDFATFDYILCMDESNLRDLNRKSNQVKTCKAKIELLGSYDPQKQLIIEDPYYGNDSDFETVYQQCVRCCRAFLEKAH

[20] = biological target: T7, Low molecular weight phosphotyrosine protein phosphatase; format: functional; details: read-out: IC50_Mean; remark: listed apart in the source
[21] = biological target: T8, Tyrosine-protein phosphatase non-receptor type 22 (Homo sapiens, UniProt Q9Y2R2); assay: PTPN22 enzyme inhibitors – biochemical, fluorescence, LYP catalytic domain, selectivity assay for LMPTP inhibitor project, dose response (AID 652006); format: functional; details: read-out: IC50_Mean
T8 sequence (Q9Y2R2 whole entry): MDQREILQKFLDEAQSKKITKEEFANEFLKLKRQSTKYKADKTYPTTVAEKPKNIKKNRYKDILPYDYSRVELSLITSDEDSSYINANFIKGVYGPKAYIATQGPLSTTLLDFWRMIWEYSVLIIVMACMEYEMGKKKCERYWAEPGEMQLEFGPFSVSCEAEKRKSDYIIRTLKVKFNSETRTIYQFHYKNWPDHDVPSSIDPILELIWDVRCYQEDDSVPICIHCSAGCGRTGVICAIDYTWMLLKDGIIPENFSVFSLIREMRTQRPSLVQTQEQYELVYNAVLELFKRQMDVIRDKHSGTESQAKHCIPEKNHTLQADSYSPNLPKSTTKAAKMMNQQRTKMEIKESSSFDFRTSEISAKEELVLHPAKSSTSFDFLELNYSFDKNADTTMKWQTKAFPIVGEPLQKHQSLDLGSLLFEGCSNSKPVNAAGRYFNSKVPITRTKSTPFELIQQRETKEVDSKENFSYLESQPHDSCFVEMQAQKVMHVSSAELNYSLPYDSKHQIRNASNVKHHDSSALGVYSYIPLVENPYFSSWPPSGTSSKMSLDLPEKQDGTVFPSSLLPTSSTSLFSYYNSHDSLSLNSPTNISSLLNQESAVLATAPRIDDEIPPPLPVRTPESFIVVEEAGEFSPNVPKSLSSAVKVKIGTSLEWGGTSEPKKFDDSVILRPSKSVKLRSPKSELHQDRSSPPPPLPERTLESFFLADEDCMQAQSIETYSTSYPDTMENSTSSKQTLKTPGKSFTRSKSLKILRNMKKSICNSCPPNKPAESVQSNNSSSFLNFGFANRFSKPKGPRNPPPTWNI

Albumin = Albumin (Bos taurus, UniProt P02769); assay: Counterscreen for inhibitors of T-cell receptor (TCR)-CD3 interaction: Fluorescence-based biochemical high throughput dose response assay to identify inhibitors of T-cell receptor (TCR)-CD3 interaction using a TAMRA-labeled BSA probe.; format: functional
Chain of Albumin (P02769 whole entry): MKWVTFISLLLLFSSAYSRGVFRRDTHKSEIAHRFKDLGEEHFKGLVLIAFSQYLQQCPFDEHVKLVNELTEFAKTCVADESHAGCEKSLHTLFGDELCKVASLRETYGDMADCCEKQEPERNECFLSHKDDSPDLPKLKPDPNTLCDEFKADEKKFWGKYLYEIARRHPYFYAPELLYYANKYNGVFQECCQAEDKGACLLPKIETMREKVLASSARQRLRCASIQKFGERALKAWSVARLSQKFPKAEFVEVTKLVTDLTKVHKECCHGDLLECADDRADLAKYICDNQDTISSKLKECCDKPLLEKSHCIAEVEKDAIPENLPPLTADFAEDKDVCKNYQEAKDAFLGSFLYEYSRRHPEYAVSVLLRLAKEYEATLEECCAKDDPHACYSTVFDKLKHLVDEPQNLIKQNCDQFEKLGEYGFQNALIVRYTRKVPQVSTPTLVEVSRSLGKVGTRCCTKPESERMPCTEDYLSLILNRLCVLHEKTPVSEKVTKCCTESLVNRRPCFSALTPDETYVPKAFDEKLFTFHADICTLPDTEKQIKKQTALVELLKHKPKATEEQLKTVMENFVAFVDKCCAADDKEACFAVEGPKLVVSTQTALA

Chain of Melanin-concentrating hormone receptor 1 (Q99705 whole entry): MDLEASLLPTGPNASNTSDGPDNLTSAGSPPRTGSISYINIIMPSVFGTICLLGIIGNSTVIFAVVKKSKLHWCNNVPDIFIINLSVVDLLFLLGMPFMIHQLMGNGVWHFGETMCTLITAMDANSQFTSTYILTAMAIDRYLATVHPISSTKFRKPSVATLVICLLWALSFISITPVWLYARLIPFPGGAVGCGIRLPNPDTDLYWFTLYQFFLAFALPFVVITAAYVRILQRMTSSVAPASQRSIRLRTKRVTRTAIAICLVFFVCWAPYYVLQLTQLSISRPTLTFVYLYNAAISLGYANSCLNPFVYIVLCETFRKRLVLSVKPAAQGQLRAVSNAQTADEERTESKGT
Chain of Protein disulfide-isomerase (P07237 whole entry): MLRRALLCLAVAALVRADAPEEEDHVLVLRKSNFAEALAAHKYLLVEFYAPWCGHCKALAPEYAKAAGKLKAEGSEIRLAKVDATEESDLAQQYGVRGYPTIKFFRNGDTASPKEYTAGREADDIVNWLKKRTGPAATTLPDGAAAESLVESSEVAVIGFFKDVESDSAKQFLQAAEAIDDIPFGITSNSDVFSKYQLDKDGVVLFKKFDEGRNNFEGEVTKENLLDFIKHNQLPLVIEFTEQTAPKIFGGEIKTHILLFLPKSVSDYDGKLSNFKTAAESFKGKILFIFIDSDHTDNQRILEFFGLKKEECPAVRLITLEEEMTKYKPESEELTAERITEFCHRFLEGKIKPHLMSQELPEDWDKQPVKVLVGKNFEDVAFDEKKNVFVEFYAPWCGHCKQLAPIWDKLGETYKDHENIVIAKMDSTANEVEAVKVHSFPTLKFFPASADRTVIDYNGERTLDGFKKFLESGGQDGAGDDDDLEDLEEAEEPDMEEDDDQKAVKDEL
T2 sequence (Q92731 whole entry): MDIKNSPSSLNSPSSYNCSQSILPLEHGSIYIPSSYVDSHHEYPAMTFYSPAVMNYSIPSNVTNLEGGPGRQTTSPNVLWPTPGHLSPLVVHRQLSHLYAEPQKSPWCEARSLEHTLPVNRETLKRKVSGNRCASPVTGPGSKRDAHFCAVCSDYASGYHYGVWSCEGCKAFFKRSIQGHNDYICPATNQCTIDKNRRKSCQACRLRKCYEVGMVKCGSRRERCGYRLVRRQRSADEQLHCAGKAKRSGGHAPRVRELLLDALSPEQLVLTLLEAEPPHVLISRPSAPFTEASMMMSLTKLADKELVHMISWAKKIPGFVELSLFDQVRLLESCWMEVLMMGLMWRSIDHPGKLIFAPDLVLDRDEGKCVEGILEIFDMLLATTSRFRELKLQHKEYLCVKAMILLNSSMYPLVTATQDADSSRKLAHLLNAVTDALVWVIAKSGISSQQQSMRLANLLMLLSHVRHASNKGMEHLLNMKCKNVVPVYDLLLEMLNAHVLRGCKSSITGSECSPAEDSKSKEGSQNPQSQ
T4 sequence (Q9P0U3 whole entry, the tested form may be a part): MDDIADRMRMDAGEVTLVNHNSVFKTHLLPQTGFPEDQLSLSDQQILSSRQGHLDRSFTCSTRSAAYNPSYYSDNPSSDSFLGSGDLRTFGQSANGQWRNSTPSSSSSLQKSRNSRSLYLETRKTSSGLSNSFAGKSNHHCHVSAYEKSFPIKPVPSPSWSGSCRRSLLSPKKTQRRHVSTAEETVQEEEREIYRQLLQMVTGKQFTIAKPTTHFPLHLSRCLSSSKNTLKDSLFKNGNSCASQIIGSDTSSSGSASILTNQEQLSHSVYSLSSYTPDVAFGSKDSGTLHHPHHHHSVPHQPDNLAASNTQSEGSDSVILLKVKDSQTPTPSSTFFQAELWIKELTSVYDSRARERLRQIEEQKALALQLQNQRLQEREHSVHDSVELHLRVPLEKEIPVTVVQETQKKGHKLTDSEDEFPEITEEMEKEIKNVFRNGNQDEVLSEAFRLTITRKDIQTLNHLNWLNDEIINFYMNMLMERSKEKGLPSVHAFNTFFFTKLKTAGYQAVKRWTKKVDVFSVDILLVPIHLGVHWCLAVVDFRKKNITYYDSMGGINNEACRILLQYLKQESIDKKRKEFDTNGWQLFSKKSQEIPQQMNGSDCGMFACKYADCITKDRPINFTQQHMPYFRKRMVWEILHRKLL
Chain of Melanocortin receptor 4 (P32245 whole entry): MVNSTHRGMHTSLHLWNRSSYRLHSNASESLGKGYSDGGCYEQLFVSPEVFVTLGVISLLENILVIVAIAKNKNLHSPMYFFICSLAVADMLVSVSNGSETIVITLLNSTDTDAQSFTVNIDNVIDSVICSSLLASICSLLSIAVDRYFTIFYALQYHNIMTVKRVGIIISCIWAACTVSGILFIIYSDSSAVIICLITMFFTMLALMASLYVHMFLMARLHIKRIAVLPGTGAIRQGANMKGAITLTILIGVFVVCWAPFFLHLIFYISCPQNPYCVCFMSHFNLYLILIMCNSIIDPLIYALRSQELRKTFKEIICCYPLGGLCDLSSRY
Chain of DNA (cytosine-5)-methyltransferase 1 (P26358 whole entry, the tested form may be a part): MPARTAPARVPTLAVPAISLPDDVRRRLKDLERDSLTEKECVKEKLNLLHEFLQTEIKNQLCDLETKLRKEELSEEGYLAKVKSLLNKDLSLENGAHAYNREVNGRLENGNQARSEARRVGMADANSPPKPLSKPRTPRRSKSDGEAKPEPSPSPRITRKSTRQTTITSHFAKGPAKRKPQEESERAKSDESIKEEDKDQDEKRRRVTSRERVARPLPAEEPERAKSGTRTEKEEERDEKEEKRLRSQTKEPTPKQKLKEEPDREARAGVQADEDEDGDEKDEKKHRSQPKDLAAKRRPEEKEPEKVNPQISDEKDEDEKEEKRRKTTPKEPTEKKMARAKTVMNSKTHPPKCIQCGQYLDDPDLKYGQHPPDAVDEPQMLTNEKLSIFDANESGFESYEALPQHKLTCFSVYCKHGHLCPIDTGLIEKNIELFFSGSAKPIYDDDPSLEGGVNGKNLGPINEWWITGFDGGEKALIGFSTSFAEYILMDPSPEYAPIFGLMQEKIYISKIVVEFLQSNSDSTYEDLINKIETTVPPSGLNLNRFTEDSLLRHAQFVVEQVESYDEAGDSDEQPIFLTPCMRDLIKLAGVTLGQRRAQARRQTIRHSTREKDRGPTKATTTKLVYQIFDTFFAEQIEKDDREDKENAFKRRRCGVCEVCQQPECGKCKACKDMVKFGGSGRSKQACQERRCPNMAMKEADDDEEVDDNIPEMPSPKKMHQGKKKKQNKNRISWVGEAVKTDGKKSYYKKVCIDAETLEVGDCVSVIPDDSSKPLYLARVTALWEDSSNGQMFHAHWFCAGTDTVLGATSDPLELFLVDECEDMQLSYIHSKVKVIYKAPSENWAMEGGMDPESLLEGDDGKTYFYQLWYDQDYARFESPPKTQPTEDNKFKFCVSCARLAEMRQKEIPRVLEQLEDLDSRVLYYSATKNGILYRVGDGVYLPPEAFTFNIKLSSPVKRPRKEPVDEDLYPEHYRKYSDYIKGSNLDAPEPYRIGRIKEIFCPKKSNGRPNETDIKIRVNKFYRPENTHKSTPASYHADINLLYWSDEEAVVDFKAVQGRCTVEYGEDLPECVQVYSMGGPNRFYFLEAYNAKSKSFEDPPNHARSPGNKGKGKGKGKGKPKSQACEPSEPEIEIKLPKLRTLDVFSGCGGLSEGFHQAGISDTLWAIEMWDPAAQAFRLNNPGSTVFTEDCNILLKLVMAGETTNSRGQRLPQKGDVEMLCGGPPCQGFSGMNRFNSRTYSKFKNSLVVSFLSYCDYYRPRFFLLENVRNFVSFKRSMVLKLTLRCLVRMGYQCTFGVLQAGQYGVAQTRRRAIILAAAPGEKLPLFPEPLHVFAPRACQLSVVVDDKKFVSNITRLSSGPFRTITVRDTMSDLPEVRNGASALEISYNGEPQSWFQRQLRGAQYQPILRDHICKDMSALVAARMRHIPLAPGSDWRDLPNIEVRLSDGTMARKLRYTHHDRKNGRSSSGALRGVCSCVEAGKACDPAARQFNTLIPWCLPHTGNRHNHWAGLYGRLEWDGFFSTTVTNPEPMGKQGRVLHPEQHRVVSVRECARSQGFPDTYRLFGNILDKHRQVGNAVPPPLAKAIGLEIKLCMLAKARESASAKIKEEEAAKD
Chain of ADP-ribosylation factor GTPase-activating protein 1 (Q62848 whole entry): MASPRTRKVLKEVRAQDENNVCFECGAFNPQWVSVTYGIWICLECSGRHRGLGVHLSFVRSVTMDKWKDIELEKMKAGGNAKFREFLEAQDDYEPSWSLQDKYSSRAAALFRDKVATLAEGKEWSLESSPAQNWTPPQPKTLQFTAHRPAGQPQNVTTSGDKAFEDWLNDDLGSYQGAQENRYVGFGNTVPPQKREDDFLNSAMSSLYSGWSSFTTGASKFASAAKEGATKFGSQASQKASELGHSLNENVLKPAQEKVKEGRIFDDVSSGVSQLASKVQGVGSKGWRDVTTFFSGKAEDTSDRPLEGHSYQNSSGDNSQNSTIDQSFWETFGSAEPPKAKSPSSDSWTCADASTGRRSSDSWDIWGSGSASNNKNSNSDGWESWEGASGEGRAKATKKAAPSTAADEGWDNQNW

CC(C)(C)OC(=O)N[C@@H](Cc1c[nH]c2ccccc12)c1nnc(SCC(N)=O)o1
AC50 [1]: 19.5 µM (active)

Cc1ccc2nc3c(O)n(CC(=O)Nc4ccccc4N4CCN(C)CC4)ncc-3c2c1
IC50 [2]: 74 µM (inactive)

N#Cc1ccc(NC(=S)NCCN2CCOCC2)cc1
AC50 [3]: 107 µM (active)

CCc1cc(OCCCCNCc2ccccc2)ccc1Cl
CC50 [4]: > 40 µM (active) | CC50 [5]: > 40 µM (active) | IC50 (cells): 20.1 µM (active) | AC50 [1]: 10.6 µM (active)

Cc1ccnc(NS(=O)(=O)c2ccc(NC(=O)Cc3cccs3)cc2)n1
IC50 (Estrogen receptor): 12.2 µM (active) | IC50 (Estrogen receptor beta [6]): 3.09 µM (active) | IC50 (Estrogen receptor beta [7]): > 109 µM (not active) | IC50 [8]: 4.2 µM (active) | IC50 [9]: 9.16 µM (active)

Cc1ccc(-n2cc(-c3ccc([N+](=O)[O-])cc3)[nH]c2=S)c(C)c1
IC50 [10]: 54.1 µM (inactive) | IC50 [11]: 17.2 µM (active)

O=C(COC(=O)CNC(=O)c1ccc(Cl)cc1Cl)NCc1ccco1
IC50 (Melanocortin receptor 4): > 64.6 µM (inactive) | IC50 [12]: > 64.6 µM (inactive)

Cc1ccc2nc(-c3ccc(NC(=O)C(C)Sc4nncs4)cc3)sc2c1 (stereo not given)
IC50 (Melanocortin receptor 4): > 64.6 µM (inactive) | IC50 [12]: > 64.6 µM (inactive) | AC50 [13]: 5.56 µM (active) | AC50 [14]: 5.51 µM (active) | AC50 [15]: > 52 µM (inactive)

CCOc1ccccc1NC(=O)CCS(=O)(=O)c1cc2c(cc1Br)CCN2C(=O)CC
EC50 [16]: > 100 µM (inactive)

N#CC(c1ccccc1)c1c(Cl)cnn(Cc2cccc3ccccc23)c1=O (stereo not given)
IC50 [17]: 0.13 µM (active) | IC50 [18]: 7.61 µM (active)

COc1ccc(Oc2c(Cl)cnn(CC(=O)O)c2=O)cc1
IC50 [17]: > 20 µM (inactive) | IC50 [18]: > 20 µM (inactive)

O=C1C(=Cc2cn(-c3ccccc3)nc2-c2ccc(OCc3ccccc3)cc2)SC(=S)N1CCS(=O)(=O)O
IC50 [19]: 7.75 µM (active) | IC50 [20]: 7.03 µM (active) | IC50 [21]: 16.1 µM (active) | IC50 (Albumin): > 94.2 µM (inactive)
